Results from article PMC7828111, “In Search for Multi-Target Ligands as Potential Agents for Diabetes Mellitus and Its Complications—A Structure-Activity Relationship Study on Inhibitors of Aldose Reductase and Protein Tyrosine Phosphatase 1B” (Molecules, 2021).

Experiments:
[1] = molecular target: T1, human recombinant PTP1B (Homo sapiens, UniProt P18031); test: Kinetic analysis of PTP1B inhibition (Lineweaver-Burk plot); type: biochemical; details: pNPP as substrate
T1 sequence (P18031 1-435): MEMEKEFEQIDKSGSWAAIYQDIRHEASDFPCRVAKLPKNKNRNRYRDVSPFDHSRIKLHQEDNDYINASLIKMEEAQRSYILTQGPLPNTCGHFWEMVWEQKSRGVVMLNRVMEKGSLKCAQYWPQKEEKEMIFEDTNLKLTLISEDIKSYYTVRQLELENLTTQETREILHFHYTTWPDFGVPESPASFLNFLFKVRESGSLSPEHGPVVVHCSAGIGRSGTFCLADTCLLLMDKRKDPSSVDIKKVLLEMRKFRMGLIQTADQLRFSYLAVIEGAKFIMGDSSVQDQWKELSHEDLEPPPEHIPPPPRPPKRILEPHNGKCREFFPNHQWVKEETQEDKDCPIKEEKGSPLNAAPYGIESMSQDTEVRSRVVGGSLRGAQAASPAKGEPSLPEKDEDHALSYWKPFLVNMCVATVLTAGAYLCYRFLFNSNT
Experimental: Kinetic analyses were carried out to dissect action mechanism of compound 4e and 4f. Briefly, the main kinetic parameters, Km and Vmax, were calculated measuring the initial hydrolysis rate of PTP1B in the presence of increasing pNPP concentration (seven different concentrations in the 0.5–25 mM range). All assays were carried out in duplicate. Data obtained were fitted using the Michaelis-Menten equation. To evaluate the action mechanism of inhibitors, we studied the dependence of Km and Vmax from inhibitors concentration, using three different inhibitor concentrations, at least. Data obtained were then analysed by double reciprocal plot (Lineweaver-Burk plot).

[2] = tested on: insulin receptor (IRβ) phosphorylation in HepG2 cells; test: Insulin receptor phosphorylation in HepG2 cells (western blot); type: cell-based, human
Experimental: (§1) The insulin mimetic/sensitizing activity of compound 4f was evaluated on both HepG2 and C2C12 cells. Starved HepG2 and C2C12 cells were incubated in the presence of compound 4f (25 μM) for 90 min and after stimulated or not with insulin (10 nM). Then, cells extracts were analysed to evaluate phosphorylation levels of the insulin receptor.
(§2) HepG2 and differentiated C2C12 cells were starved for 24 h and then incubated in the presence of compound 4f (25 μM, final concentration) for 90 min. After this time, cells were washed with PBS and then stimulated or not with 10 nM insulin for 30 min. Then, cells were lysed and cellular proteins separated on a 12% SDS-PAGE. After electrophoresis, cellular proteins were transferred on a PVDF membrane by western blot technique and then probed against antibodies able to specifically recognize insulin receptor (I2033 Sigma Aldrich) or phosphorylated form of IR (MABS65, Sigma-Aldrich). Sample loading was evaluated probing PVDF membrane with anti-actin antibodies (ABT1485 Sigma Aldrich).

[3] = tested on: insulin receptor (IRβ) phosphorylation in C2C12 cells; test: Insulin receptor phosphorylation in C2C12 cells (western blot); type: cell-based, murine
Experimental: as §1, §2

Mechanism of PTP1B inhibition [1]: mixed-type non-competitive inhibitors
PTP1B K′i (apparent dissociation constant, EIS complex) [1]: 2.3 ± 0.1 µM
Ki ([1]; read-out: PTP1B Ki (apparent dissociation constant)): 900 ± 100 nM
Structure (SMILES): O=C(O)CCN1C(=O)/C(=C/c2ccc(OCCc3ccccc3)cc2)SC1=S [4f, 3-[(5Z)-4-Oxo-{5-[4-(2-phenylethoxy)phenyl]methylidene}-2-thioxothiazolidin-3-yl]propanoic acid]
Increase of IRβ phosphorylation level after stimulation with insulin ([2]; HepG2, 25 μM for 90 min, then 10 nM insulin 30 min, control cells 39%): 260%
Effect on basal phosphorylation levels of IRβ ([2]; HepG2, 25 μM, 90 min, no insulin): marked reduction
IRβ phosphorylation levels after insulin versus insulin alone ([3]; C2C12, 25 μM for 90 min, then 10 nM insulin 30 min): significantly higher
Effect on basal IR phosphorylation levels ([3]; C2C12, 25 μM, 90 min, no insulin): did not appreciably affect
